The values below come from patent US12539335B2, “Tricyclic polypeptide conjugated drug and use thereof” (CONJUSTAR (ZHUHAI) BIOLOGICS CO., LTD., priority 2021, dated 2026).

Where a name gives a salt, the structure may show the parent alone. Starred links: 1 amine or outer side, 2 acyl side, 3 side chain; linkers in the order of their positions; H or OH if unused. Positions of bridges follow the written chain, without caps; N, C: chain ends. Non-standard residues stand in square brackets, D forms with d. Residues, ends and D or L forms follow the SMILES beside them. Chains are numbered I, II in the order given. *: point of attachment. TATA = O=C(CC[*:1])N1CN(C(=O)CC[*:2])CN(C(=O)CC[*:3])C1; Dolaproine = CO[C@@H]([C@@H]1CCCN1)[C@@H](C)C(=O)O; Dil = CC[C@H](C)[C@H](NC)[C@@H](CC(=O)O)OC; 1Nal = N[C@@H](Cc1cccc2ccccc12)C(=O)O; X2 = O=C(CCCC(=O)[*:2])NCCC(=O)[*:1]; PABC = O=C(OCc1ccc(N[*:1])cc1)[*:2]; X1 = C[C@@H](N*)[C@@H](O)c1ccccc1; Hyp = O=C(O)[C@@H]1C[C@@H](O)CN1; hArg = N=C(N)NCCCC[C@H](N)C(=O)O; Cit = NC(=O)NCCC[C@H](N)C(=O)O; Pen = CC(C)(S)[C@H](N)C(=O)O; NMeV = CN[C@H](C(=O)O)C(C)C; hCys = N[C@@H](CCS)C(=O)O; Sar = CNCC(=O)O

In series [1] the target is T1, Human Nectin-4 (Homo sapiens, UniProt Q96NY8).
T1 construct: purchased GE Healthcare 1006-72
T1 sequence (Q96NY8 32-510): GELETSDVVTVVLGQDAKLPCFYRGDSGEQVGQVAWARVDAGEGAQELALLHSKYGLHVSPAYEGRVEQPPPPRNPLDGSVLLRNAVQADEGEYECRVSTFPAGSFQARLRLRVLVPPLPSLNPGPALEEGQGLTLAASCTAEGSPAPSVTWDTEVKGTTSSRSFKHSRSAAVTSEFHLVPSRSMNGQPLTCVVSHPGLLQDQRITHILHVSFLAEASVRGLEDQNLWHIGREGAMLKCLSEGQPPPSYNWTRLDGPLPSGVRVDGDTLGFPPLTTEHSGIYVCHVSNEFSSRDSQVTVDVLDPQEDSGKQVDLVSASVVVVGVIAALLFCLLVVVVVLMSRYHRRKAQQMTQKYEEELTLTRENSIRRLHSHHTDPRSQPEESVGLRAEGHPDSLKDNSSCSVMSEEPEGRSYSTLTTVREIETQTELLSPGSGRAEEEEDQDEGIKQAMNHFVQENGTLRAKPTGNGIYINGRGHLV
Put plainly: Binding capacity to Nectin-4 protein (SPR, Biacore 8K). The method, then:
Test Example 1. Binding Capacity Test of the Compounds of the Present Invention to Nectin-4 Protein
To detect the affinity of the compound to be tested to the target protein Nectin-4 using the SPR method.
• Biacore 8K (GE Healthcare) • 96-well Plate (Cat #650101, greiner bio-one) • CM5 chip (Cat #BR-1005-30, GE Healthcare) • Amine Coupling Kit (Cat #BR-1000-50, GE Healthcare) • EDC • NHS • 1 M ethanolamine • 10 mM sodium acetate pH 4.5 (Cat #BR-1003-50, GE Healthcare) • DMSO (Cat #D4540, Sigma) • P20 (Cat #BR-1000-54, GE Healthcare) • PBS (Cat #BR-1006-72, GE Healthcare) • Nectin-4 (Cat #1006-72, GE Healthcare) 3. Experimental Protocol
In this experiment, the amino coupling method was used. The target protein Nectin-4 was directly immobilized on the CM5 chip using Biacore 8K. […] The final data were subjected to Kinetics fitting analysis based on a 1:1 model using Biacore Insight Evaluation Software (V 2.0.15.12933).
1) Preparation of the buffer: 10 mM PBS, pH 7.4, 137 mM NaCl, 2.7 mM KCl, 5% DMSO, and 0.05% P20.
2) Activation of the CM5 chip: The CM5 chip was activated with 400 mM EDC and 100 mM NHS at a flow rate of 10 μL/min for 420 seconds.
3) Coupling of the target protein: The target protein was diluted to 10 μg/mL with 10 mM sodium acetate (pH 4.5) and coupled at a flow rate of 10 μL/min for 284 s. The 1 #, 2 #, and 3 #channels on the chip were used in the experiment, and the coupling results were 1639.9RU, 1747.8RU, and 1702.2RU, respectively.
4) Blocking of the CM5 chip: The CM5 chip was blocked with 1 M ethanolamine at a flow rate of 10 μL/min for 420 seconds.
5) Analyte concentration: The compound to be tested was diluted with the buffer. The compound to be tested was diluted from 100 nM to 0.78 nM in a 2-fold gradient.
6) Sample injection analysis: Each concentration of the working solution of the compound to be tested corresponded to one cycle, with a flow rate of 30 μL/min for binding for 180 seconds and dissociating for 180 seconds. The last cycle was a 5% DMSO solvent correction cycle.
7) All results were subjected to kinetics fitting analysis based on a 1:1 model. […]

The nature of series [2]: Pharmacokinetic analysis in rat plasma. The series is classed as in vivo, SD rats. The procedure:
Test Example 5: Pharmacokinetic Analysis of the Compounds of the Present Invention in Rat Plasma
To test the pharmacokinetics of the compounds of the present invention in SD rats.
(§1) The pharmacokinetic characteristics of the compound after intravenous injection were tested in rats according to a standard protocol. The compound to be tested was formulated into a clear solution using 25 mM L-histidine (pH=7) in 10% sucrose as a vehicle. Two rats were given a single intravenous injection of 3 mg/kg of the compound to be tested. Whole blood was collected at time points of 0.083, 0.25, 0.5, 1, 2, 4, 8, and 24 hours after administration to get plasma. The concentration of the compound of the present invention and the concentration of its potential metabolite MMAE were analyzed by the LC-MS/MS method, and the pharmacokinetic parameters were calculated by Phoenix WinNonlin software.

A short description of series [3]: Pharmacokinetic analysis in Cynomolgus macaque plasma. It is filed as in vivo. Particulars: Cynomolgus macaques, single IV 1 mg/kg of the compound. The method, then: Test Example 6: Pharmacokinetic Analysis in Cynomolgus Macaque Plasma
To test the pharmacokinetics of the compounds of the present invention in Cynomolgus macaques.
as §1, with “tested” for “tested in rats”, “standard protocol in Cynomolgus macaques.” for “standard protocol.”, “vehicle. Cynomolgus macaques” for “vehicle. Two rats”, “of 1” for “of 3”, “compound to be tested” for “compound of the present invention”

Setting [4] is: metabolite MMAE in SD rat plasma after single IV 3 mg/kg acetate salt of PDC_2.

Compound `CC[C@H](C)[C@@H]([C@@H](CC(=O)N1CCC[C@H]1[C@H](OC)[C@@H](C)C(=O)N[C@H](C)[C@@H](O)c1ccccc1)OC)N(C)C(=O)[C@@H](NC(=O)[C@H](C(C)C)N(C)C(=O)OCc1ccc(NC(=O)[C@H](CCCNC(N)=O)NC(=O)[C@@H](NC(=O)CCCC(=O)NCCC(=O)N(C)CC(=O)N(C)CC(=O)N(C)CC(=O)N(C)CC(=O)N(C)CC(=O)N(C)CC(=O)N(C)CC(=O)N(C)CC(=O)N(C)CC(=O)N(C)CC(=O)N[C@H]2CCCCNC(=O)C[C@@H](C(=O)N[C@H]3CSCCC(=O)N4CN5CN(C4)C(=O)CCSC(C)(C)[C@H](NC(=O)[C@@H](CC(=O)O)NC(=O)[C@H](Cc4cccc6ccccc46)NC(=O)[C@@H]4CCCN4C3=O)C(=O)N[C@@H](CCSC)C(=O)N[C@@H](CCCCNC(=N)N)C(=O)N[C@@H](CC(=O)O)C(=O)N[C@@H](Cc3c[nH]c4ccccc34)C(=O)N[C@@H](CO)C(=O)N[C@@H]([C@@H](C)O)C(=O)N3CCC[C@H]3C(=O)N3C[C@H](O)C[C@H]3C(=O)N[C@@H](Cc3c[nH]c4ccccc34)C(=O)N[C@H](C(N)=O)CSCCC5=O)NC(=O)[C@H](CCCCNC(=N)N)NC2=O)C(C)C)cc1)C(C)C` [Acetate salt of PDC_1] (I: [Sar][Sar][Sar][Sar][Sar][Sar][Sar][Sar][Sar][Sar]K[hArg]DCP[1Nal][dD][Pen]M[hArg]DWSTP[Hyp]WC-NH2 / II: V[Cit][PABC][NMeV]V[Dil][Dolaproine]-X1; lactam I:11-I:13; linker I:14-I:18-I:28 via TATA; linker I:N-II:N via X2) showed a Kd in series [1] of 1.4 nM.

Turning to `CC[C@H](C)[C@@H]([C@@H](CC(=O)N1CCC[C@H]1[C@H](OC)[C@@H](C)C(=O)N[C@H](C)[C@@H](O)c1ccccc1)OC)N(C)C(=O)[C@@H](NC(=O)[C@H](C(C)C)N(C)C(=O)OCc1ccc(NC(=O)[C@H](CCCNC(N)=O)NC(=O)[C@@H](NC(=O)CCCC(=O)NCCC(=O)N(C)CC(=O)N(C)CC(=O)N(C)CC(=O)N(C)CC(=O)N(C)CC(=O)N(C)CC(=O)N(C)CC(=O)N(C)CC(=O)N(C)CC(=O)N(C)CC(=O)N[C@H]2CCCCNC(=O)C[C@@H](C(=O)N[C@H]3CSCCC(=O)N4CN5CN(C4)C(=O)CCSC(C)(C)[C@H](NC(=O)[C@@H](CC(=O)O)NC(=O)[C@H](Cc4cccc6ccccc46)NC(=O)[C@@H]4CCCN4C3=O)C(=O)N[C@@H](CCSC)C(=O)N[C@@H](CCCCNC(=N)N)C(=O)N[C@@H](CC(=O)O)C(=O)N[C@@H](Cc3c[nH]c4ccccc34)C(=O)N[C@@H](CO)C(=O)N[C@@H]([C@@H](C)O)C(=O)N3CCC[C@H]3C(=O)N3C[C@H](O)C[C@H]3C(=O)N[C@@H](Cc3c[nH]c4ccccc34)C(=O)N[C@H](C(N)=O)CCSCCC5=O)NC(=O)CN(C)C2=O)C(C)C)cc1)C(C)C` [Acetate salt of PDC_3] (I: [Sar][Sar][Sar][Sar][Sar][Sar][Sar][Sar][Sar][Sar]K[Sar]DCP[1Nal][dD][Pen]M[hArg]DWSTP[Hyp]W[hCys]-NH2 / II: V[Cit][PABC][NMeV]V[Dil][Dolaproine]-X1; lactam I:11-I:13; linker I:14-I:18-I:28 via TATA; linker I:N-II:N via X2), the Kd in series [1] is 4.13 nM.

Turning to `CC[C@H](C)[C@@H]([C@@H](CC(=O)N1CCC[C@H]1[C@H](OC)[C@@H](C)C(=O)N[C@H](C)[C@@H](O)c1ccccc1)OC)N(C)C(=O)[C@@H](NC(=O)[C@@H](NC)C(C)C)C(C)C` [MMAE, monomethyl auristatin E] (H-[NMeV]V[Dil][Dolaproine]-X1), in series [2] (SD rats, single IV 3 mg/kg), the “exposure of metabolite MMAE relative to exposure of the compound” value is reported as “about 1/40”. Besides, in series [2] (setting [4]), the AUC0-last was found to be 0.11 µM·h and the Cmax was 70 nM. Besides, the “MMAE release in blood” value in series [3] is given as “lower MMAE release in blood than a detection limit”.
